The text below walks through data of US9040528B2, “Chemical compounds 542” (AstraZeneca AB, priority 2008, dated 2015).

The experiment deals with Escherichia coli DNA gyrase A/B tetramer (Escherichia coli (strain K12), UniProt P0AES4+P0AES6). The experiment is described as follows: DNA gyrase supercoiling activity fluorescence polarisation assay. To be noted: 5 nM enzyme, relaxed plasmid, 0.3 mM ATP, ambient temperature; read-out: E. coli DNA gyrase supercoiling IC50. The experiment is classed as biochemical. The method in brief:
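Supercoiling reactions quenched with 40 nM 5′-BODIPY-FL triplex-forming oligonucleotide probe in pH 3.5 NaCl/sodium acetate buffer; after 60 min, fluorescence anisotropy read (ex 485/em 535 nm). IC50 by nonlinear regression, normalised to 0.8% DMSO (100% activity) and 5 μM ciprofloxacin (0% activity).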
A general note: Polarisation of emitted light reports the rotation of a fluorescent probe.
In general, IC50 refers to the concentration that inhibits the measured activity by half. Consider `C[C@@H]1CN2c3c(cc4c(-n5cncn5)noc4c3F)CC3(C(=O)NC(=O)NC3=O)[C@H]2[C@H](C)O1` [Example 53(a), (2R,4 S,4 aS)-11-fluoro-2,4-dimethyl-8-(1H-1,2,4-triazol-1-yl)-2,4,4a,6-tetrahydro-1H,1′H-spiro[isoxazolo[4,5-g][1,4]oxazino[4,3-a]quinoline-5,5′-pyrimidine]-2′,4′,6′(3′H)-trione], for which the concentration for half-maximal inhibition (IC50) was 200 nM.
Turning to `C[C@@H]1CN2c3c(cc4c(-n5cncn5)noc4c3F)CC3(C(=O)NC(=O)NC3=O)[C@@H]2[C@@H](C)O1` [Example 53(b), (2R,4R,4aR)-11-fluoro-2,4-dimethyl-8-(1H-1,2,4-triazol-1-yl)-2,4,4a,6-tetrahydro-1H,1′H-spiro[isoxazolo[4,5-g][1,4]oxazino[4,3-a]quinoline-5,5′-pyrimidine]-2′,4′,6′(3′H)-trione], the concentration for half-maximal inhibition (IC50) came to 20000 nM.
For `C[C@H]1CN2c3c(cc4c(-c5ccncn5)noc4c3F)CC3(C(=O)NC(=O)NC3=O)[C@@H]2[C@@H](C)O1` [Example 74(a), (2S,4R,4aR)-11-fluoro-2,4-dimethyl-8-(pyrimidin-4-yl)-2,4,4a,6-tetrahydro-1H,1′H-spiro[isoxazolo[4,5-g][1,4]oxazino[4,3-a]quinoline-5,5′-pyrimidine]-2′,4′,6′(3′H)-trione] the value was 27000 nM.
`C[C@@H]1CN2c3c(cc4c(-c5ccncn5)noc4c3F)CC3(C(=O)NC(=O)NC3=O)[C@H]2[C@H](C)O1` [Example 74(b), (2R,4S,4aS)-11-fluoro-2,4-dimethyl-8-(pyrimidin-4-yl)-2,4,4a,6-tetrahydro-1H,1′H-spiro[isoxazolo[4,5-g][1,4]oxazino[4,3-a]quinoline-5,5′-pyrimidine]-2′,4′,6′(3′H)-trione]: the 50% inhibitory concentration (IC50) came to 300 nM.
The figure for `C[C@H]1CN2c3c(cc4c(C(F)(F)F)noc4c3F)CC3(C(=O)NC(=O)NC3=O)[C@@H]2[C@@H](C)O1` [Example 92(a), (2S,4R,4aR)-11-fluoro-2,4-dimethyl-8-(trifluoromethyl)-2,4,4a,6-tetrahydro-1H,1′H-spiro[isoxazolo[4,5-g][1,4]oxazino[4,3-a]quinoline-5,5′-pyrimidine]-2′,4′,6′(3′H)-trione] is 65000 nM; for `C[C@@H]1CN2c3c(cc4c(C(F)(F)F)noc4c3F)CC3(C(=O)NC(=O)NC3=O)[C@H]2[C@H](C)O1` [Example 92(b), (2R,4S,4aS)-11-fluoro-2,4-dimethyl-8-(trifluoromethyl)-2,4,4a,6-tetrahydro-1H,1′H-spiro[isoxazolo[4,5-g][1,4]oxazino[4,3-a]quinoline-5,5′-pyrimidine]-2′,4′,6′(3′H)-trione] it is 600 nM; for `C[C@H]1CN2c3c(cc4c(C(F)F)noc4c3F)CC3(C(=O)NC(=O)NC3=O)[C@@H]2[C@@H](C)O1` [Example 93(a), (2S,4R,4aR)-8-(difluoromethyl)-11-fluoro-2,4-dimethyl-2,4,4a,6-tetrahydro-1H,1′H-spiro[isoxazolo[4,5-g][1,4]oxazino[4,3-a]quinoline-5,5′-pyrimidine]-2′,4′,6′(3′H)-trione] it is 56000 nM.
With `C[C@@H]1CN2c3c(cc4c(C(F)F)noc4c3F)CC3(C(=O)NC(=O)NC3=O)[C@H]2[C@H](C)O1` [Example 93(b), (2R,4S,4aS)-8-(difluoromethyl)-11-fluoro-2,4-dimethyl-2,4,4a,6-tetrahydro-1H,1′H-spiro[isoxazolo[4,5-g][1,4]oxazino[4,3-a]quinoline-5,5′-pyrimidine]-2′,4′,6′(3′H)-trione], the IC50 was found to be 400 nM.
For `C[C@H]1CN2c3c(cc4c(C(=O)NCC(F)F)noc4c3F)CC3(C(=O)NC(=O)NC3=O)[C@@H]2[C@@H](C)O1` [Example 94(a), (2S,4R,4aR)—N-(2,2-difluoroethyl)-11-fluoro-2,4-dimethyl-2′,4′,6′-trioxo-2,2′,3′,4,4a,4′,6,6′-octahydro-1H,1′H-spiro[isoxazolo[4,5-g][1,4]oxazino[4,3-a]quinoline-5,5′-pyrimidine]-8-carboxamide] the value was 51000 nM.
On to `C[C@@H]1CN2c3c(cc4c(C(=O)NCC(F)F)noc4c3F)CC3(C(=O)NC(=O)NC3=O)[C@H]2[C@H](C)O1` [Example 94(b), (2R,4S,4aS)—N-(2,2-difluoroethyl)-11-fluoro-2,4-dimethyl-2′,4′,6′-trioxo-2,2′,3′,4,4a,4′,6,6′-octahydro-1H,1′H-spiro[isoxazolo[4,5-g][1,4]oxazino[4,3-a]quinoline-5,5′-pyrimidine]-8-carboxamide], for which the IC50 was 800 nM.
Take `C[C@@H]1CN2c3c(cc4c(C(=O)N5CC(F)(F)C5)noc4c3F)CC3(C(=O)NC(=O)NC3=O)[C@H]2[C@H](C)O1` [Example 95(a), (2R,4S,4aS)-8-(3,3-difluoroazetidine-1-carbonyl)-11-fluoro-2,4-dimethyl-2,4,4a,6-tetrahydro-1H,1′H-spiro[isoxazolo[4,5-g][1,4]oxazino[4,3-a]quinoline-5,5′-pyrimidine]-2′,4′,6′(3′H)-trione]: the IC50 amounted to 1000 nM.
As for `C[C@@H]1CN2c3c(cc4c(-c5nccs5)noc4c3F)CC3(C(=O)NC(=O)NC3=O)[C@H]2[C@H](C)O1` [Example 96, (2R,4S,4aS)-11-fluoro-2,4-dimethyl-8-(thiazol-2-yl)-2,4,4a,6-tetrahydro-1H,1′H-spiro[isoxazolo[4,5-g][1,4]oxazino[4,3-a]quinoline-5,5′-pyrimidine]-2′,4′,6′(3′H)-trione], the IC50 turned out to be 700 nM.
The figure for `C[C@H]1CN2c3c(nc4c(-c5nccs5)noc4c3Cl)CC3(C(=O)NC(=O)NC3=O)[C@@H]2[C@@H](C)O1` [Example 111(a), (2S,4R,4aR)-11-chloro-2,4-dimethyl-8-(thiazol-2-yl)-2,4,4a,6-tetrahydro-1H,1′H-spiro[isoxazolo[4,5-g][1,4]oxazino[4,3-a][1,5]naphthyridine-5,5′-pyrimidine]-2′,4′,6′(3′H)-trione] is 83000 nM; for `C[C@@H]1CN2c3c(nc4c(-c5nccs5)noc4c3Cl)CC3(C(=O)NC(=O)NC3=O)[C@H]2[C@H](C)O1` [Example 111(b), (2R,4S,4aS)-11-chloro-2,4-dimethyl-8-(thiazol-2-yl)-2,4,4a,6-tetrahydro-1H,1′H-spiro[isoxazolo[4,5-g][1,4]oxazino[4,3-a][1,5]naphthyridine-5,5′-pyrimidine]-2′,4′,6′(3′H)-trione] it is 1100 nM; for `CNC(=O)c1noc2c(F)c3c(cc12)CC1(C(=O)NC(=O)NC1=O)[C@H]1[C@H](C)O[C@H](C)CN31` [Example 140(a), (2R,4S,4aS)-11-fluoro-N,2,4-trimethyl-2′,4′,6′-trioxo-2,2′,3′,4,4a,4′,6,6′-octahydro-1H,1′H-spiro[isoxazolo[4,5-g][1,4]oxazino[4,3-a]quinoline-5,5′-pyrimidine]-8-carboxamide] it is 900 nM.
Take `CC(C)NC(=O)c1noc2c(F)c3c(cc12)CC1(C(=O)NC(=O)NC1=O)[C@H]1[C@H](C)O[C@H](C)CN31` [Example 147(a), (2R,4S,4aS)-11-fluoro-N-isopropyl-2,4-dimethyl-2′,4′,6′-trioxo-2,2′,3′,4,4a,4′,6,6′-octahydro-1H,1′H-spiro[isoxazolo[4,5-g][1,4]oxazino[4,3-a]quinoline-5,5′-pyrimidine]-8-carboxamide]: the 50% inhibitory concentration (IC50) amounted to 900 nM.
The figure for `C[C@H]1CN2c3c(cc4c(-c5ncccn5)noc4c3F)CC3(C(=O)NC(=O)NC3=O)[C@@H]2[C@@H](C)O1` [Example 148(a), (2S,4R,4aR)-11-fluoro-2,4-dimethyl-8-(pyrimidin-2-yl)-2,4,4a,6-tetrahydro-1H,1′H-spiro[isoxazolo[4,5-g][1,4]oxazino[4,3-a]quinoline-5,5′-pyrimidine]-2′,4′,6′(3′H)-trione] is 83000 nM.
On to `C[C@@H]1CN2c3c(cc4c(-c5ncccn5)noc4c3F)CC3(C(=O)NC(=O)NC3=O)[C@H]2[C@H](C)O1` [Example 148(b), (2R,4S,4aS)-11-fluoro-2,4-dimethyl-8-(pyrimidin-2-yl)-2,4,4a,6-tetrahydro-1H,1′H-spiro[isoxazolo[4,5-g][1,4]oxazino[4,3-a]quinoline-5,5′-pyrimidine]-2′,4′,6′(3′H)-trione], for which the 50% inhibitory concentration (IC50) is 400 nM.
The figure for `C[C@@H]1CN2c3c(cc4c(-c5cnccn5)noc4c3F)CC3(C(=O)NC(=O)NC3=O)[C@H]2[C@H](C)O1` [Example 165(b), (2R,4S,4aS)-11-fluoro-2,4-dimethyl-8-(pyrazin-2-yl)-2,4,4a,6-tetrahydro-1H,1′H-spiro[isoxazolo[4,5-g][1,4]oxazino[4,3-a]quinoline-5,5′-pyrimidine]-2′,4′,6′(3′H)-trione] is 200 nM; for `C[C@@H]1CN2c3c(cc4c(-c5cnc(N6CCOCC6)cn5)noc4c3F)CC3(C(=O)NC(=O)NC3=O)[C@@H]2[C@@H](C)O1` [Example 166(a), (2R,4R,4aR)-11-fluoro-2,4-dimethyl-8-(5-morpholinopyrazin-2-yl)-2,4,4a,6-tetrahydro-1H,1′H-spiro[isoxazolo[4,5-g][1,4]oxazino[4,3-a]quinoline-5,5′-pyrimidine]-2′,4′,6′(3′H)-trione] it is 83000 nM.
Take `C[C@@H]1CN2c3c(cc4c(-c5cnc(N6CCOCC6)cn5)noc4c3F)CC3(C(=O)NC(=O)NC3=O)[C@H]2[C@H](C)O1` [Example 166(b), (2R,4S,4aS)-11-fluoro-2,4-dimethyl-8-(5-morpholinopyrazin-2-yl)-2,4,4a,6-tetrahydro-1H,1′H-spiro[isoxazolo[4,5-g][1,4]oxazino[4,3-a]quinoline-5,5′-pyrimidine]-2′,4′,6′(3′H)-trione]: the 50% inhibitory concentration (IC50) was 6900 nM.
Take `COc1cncc(-c2noc3c(F)c4c(cc23)CC2(C(=O)NC(=O)NC2=O)[C@H]2[C@H](C)O[C@H](C)CN42)n1` [Example 167, (2R,4S,4aS)-11-fluoro-8-(6-methoxypyrazin-2-yl)-2,4-dimethyl-2,4,4a,6-tetrahydro-1H,1′H-spiro[isoxazolo[4,5-g][1,4]oxazino[4,3-a]quinoline-5,5′-pyrimidine]-2′,4′,6′(3′H)-trione]: the IC50 came to 1100 nM.
